According to patent US9862718B2, “Sodium salt of (2S, 5R)-6-benzyloxy-7-oxo-1,6-diaza-bicyclo [3.2.1] octane-2-carboxylic acid and its preparation” (WOCKHARDT LIMITED, priority 2013, dated 2018):

Columns and labels:
Assay type in all cases: physicochemical
[1] = hygroscopicity of the isolated solid; conditions: isolated solid material, compared with the corresponding free acid
Procedure: (1) The compound of Formula (I) is isolable as a highly pure solid material (purity of about at least 98% as determined by HPLC) and is a non-hygroscopic material as compared with the corresponding free acid (compound of Formula (V), which is obtained as syrupy material).
The precipitated solid was filtered under suction and the wet cake was washed with chilled acetone (400 ml). The non-hygroscopic solid was dried under vacuum at 40° C. for 1 hour to provide off-white colored material (sodium salt of (2S,5R)-6-benzyloxy-7-oxo-1,6-diaza-bicyclo{3.2.1}-octane-2-carboxylic acid) in 135 gm (89%, calculation adjusted for 70% purity of free acid) quantity.

[2] = stability study on storage at room temperature (purity by HPLC)
[3] = stability of the free acid on storage (attempts to prepare this compound); conditions: syrupy in nature
Text: The compound of Formula (V) i.e. (2S,5R)-6-benzyloxy-7-oxo-1,6-diaza-bicyclo[3.2.1]octane-2-carboxylic acid is disclosed in International Patent Application No. PCT/FR01/02418. […] US Patent Publication No. 20100197928 discloses a procedure to prepare a diastereomeric mixture of (S)-5-benzyloxyamino-piperidin-2-carboxylic acid benzyl ester as an oxalate salt in 50:50 ratio.

Compound | hygroscopicity [1] | purity as analyzed by HPLC, initial purity ([2]; stability study, room temperature, initial) [%] | stability on storage ([2]; storage at room temperature for three months) | purity as analyzed by HPLC, purity after three months ([2]; storage at room temperature, after three months) [%] | purity as analyzed by HPLC, purity after two moths ([2]; storage at room temperature, after two moths) [%] | stability on storage [3]
O=C([O-])[C@@H]1CC[C@@H]2CN1C(=O)N2OCc1ccccc1.[Na+] [Formula (I), sodium salt of (2S,5R)-6-benzyloxy-7-oxo-1,6-diaza-bicyclo[3.2.1]octane-2-carboxylic acid] | non-hygroscopic | 99.75 | excellent stability | 99.66 | 99.69 | –
O=C(O)[C@@H]1CC[C@@H]2CN1C(=O)N2OCc1ccccc1 [Formula (V), (2S,5R)-6-benzyloxy-7-oxo-1,6-diaza-bicyclo[3.2.1]octane-2-carboxylic acid] | – | – | – | – | – | unstable
